According to patent US5565426A, “Peptide compounds active in cell adhesion processes” (Adir et Compagnie, priority 1992, dated 1996):
Non-standard residues stand in square brackets, D forms with d. Residues, ends and D or L forms follow the SMILES beside them. GABA = NCCCC(=O)O

Experiments:
[1] = system: formation of a blood clot in the mesenteric artery of the rat; assay: Experimental thrombosis in the mesenteric artery of the rat; format: in vivo; conditions: venous infusion for 5 min
Experimental: The experiments were carried out on male rats (250 to 400 g). The animals are anaesthetised with pentobarbitone (50 mg/kg i.p.). A catheter is installed in the jugular vein in order to permit i.v. injections.
The preparation of the mesenteric artery and the induction of thrombosis are carried out in accordance with the method described by Bourgain et al. Adv. Exp. Med. Biol., 180, 635-649, (1984). A longitudinal incision is made in the abdomen and part of the intestine is exposed. Using a binocular magnifying device, a branch of the mesenteric artery from 200 to 500 μm in diameter is prepared. The adjacent vein is separated and the adipose tissues are removed; a 2 mm segment of artery is thus prepared. The animal is then installed under a microscope and the segment of the mesenteric artery is perfused with physiological solution (37° C.) at 5 ml/min. The segment can be observed for several hours. The images are recorded using a video camera and a magnetoscope.
After installation and stabilisation of the preparation, a platinum electrode is placed on each side of the arteriole wall using a micromanipulator. An endothelial lesion is then induced by applying for 60 seconds an electric current of 40 μA, the current being reversed every 5 seconds. […] Normally, no thrombus formation is observed on applying the electric current.
The formation of a clot is then induced by perfusion with ADP (adenosine diphosphate) for 2 minutes. The ADP is used at a final molarity of 300 μM. The clot forms and then, after 2 to 5 minutes, disappears by embolisation. The vessel then re-assumes a normal state; there is no spontaneous formation of a clot.
The effect of the products on the formation of thrombi was tested by treating the animals by venous infusion for 5 minutes. The infusion starts […] minute before perfusion with ADP.
The recorded images are analysed and the size of the clots is expressed in arbitrary surface values. The measurements are carried out at determined times during and after the perfusion of ADP. A comparison can therefore be made of the size of the clots in the control state and after the infusion of the product.

[2] = system: mice (CD-1), collagen/adrenaline-induced thromboembolism; assay: Thromboembolism in mice (collagen + adrenaline i.v.); format: in vivo; conditions: for dose from which formation of microthrombi in the lungs is inhibited: histological examination of lungs; for dose that protects half of the mice: i.v., injected with collagen + adrenaline, death or paralysis at 15 min
Experimental: Male mice (CD-1) weighing from 28 to 32 g are used for these experiments. The animals are maintained at from 26° to 28° C. for the 30 minutes preceding the experiment. A combination of collagen (150 μg/ml) and adrenaline (100 μmol/l) causes the mice to die by paralysis. Each mouse receives 0.1 ml of that combination, which gives a dose of 1.8 μg of adrenaline and 15 μg of collagen per mouse. The incidence of death or paralysis is observed 15 minutes after the intravenous injection (i.v.) of the combination (adrenaline+collagen) into the caudal vein. The peptides are injected at the same time as the combination of agonists. In the case of the tests relating to the duration of action, the mice are pre-treated with the peptides i.v. in a volume of 0.1 ml. A histological examination of the lungs is carried out in order to visualise the presence of microthrombi in the vessels of the microcirculation, which are attributable to the adrenaline-collagen combination. At the end of the experiment, the lungs are rapidly removed, fixed in formalin and then enclosed in paraffin. 5 μm sections are made and coloured with haematoxylin/eosin. The sections are examined and the presence or absence of microthrombi is noted. The X^2 test (Fischer) is used to determine whether there is a significant difference between the effects in mice that have received the peptides and those that have not.

Structure (SMILES) | Percentage inhibition of the formation of a blood clot in the mesenteric artery of the rat ([1]; 2 mg/kg/min) | Percentage inhibition of the formation of a blood clot in the mesenteric artery of the rat ([1]; 5 mg/kg/min) | Percentage inhibition of the formation of a blood clot in the mesenteric artery of the rat ([1]; 10 mg/kg/min) | duration of action ([2]; dose of 1 mg, i.v. pre-treatment) | dose from which formation of microthrombi in the lungs is inhibited [2] | dose that protects half of the mice [2] | times more active than the reference substance (RGDW) ([2]; ratio of doses protecting half of the mice)
NCCCC[C@H](NC(=O)CCCN)C(=O)NCC(=O)N[C@@H](CC(=O)O)C(=O)N[C@@H](Cc1c[nH]c2ccccc12)C(=O)O [Example 12, H2 N--(CH2)3 --CO--Lys--Gly--Asp--Trp--OH] (H-[GABA]KGDW-OH) | 17% | 33% | 56% | – | – | – | –
N=C(N)NCCC[C@H](N)C(=O)NCC(=O)N[C@@H](CC(=O)O)C(=O)N[C@@H](Cc1c[nH]c2ccccc12)C(=O)O [H--Arg--Gly--Asp--Trp--OH, reference compound] (H-RGDW-OH) | – | – | 36% | less than 5 minutes | ≥ 1 mg/mouse | 0.3 mg/mouse | –
N=C(N)NCCC[C@H](NC(=O)CCCN)C(=O)NCC(=O)N[C@@H](CC(=O)O)C(=O)N[C@@H](Cc1c[nH]c2ccccc12)C(=O)O [Example 11, H2 N--(CH2)3 --CO--Arg--Gly--Asp--Trp--OH] (H-[GABA]RGDW-OH) | – | – | – | – | ≥ 0.03 mg/mouse | 0.03 mg/mouse | 10 times
